According to publication PMC11729428, “New Potent Inhibitor of Transforming Growth Factor-Beta (TGFβ) Signaling that is Efficacious against Microsatellite Stable Colorectal Cancer Metastasis in Combination with Immune Checkpoint Therapy in Mice” (ACS Pharmacology & Translational Science, 2024):

Experiments:
ALK5 = conditions: structure-activity relationship study of Li et al. ref 16; cited from earlier work
in vitro [1] = conditions: mouse
Experimental: (§1) 5. Methods for In vitro characterizations of HYL001 […]
(§2) Rapid equilibrium dialysis was performed in triplicates with a rapid equilibrium dialysis (RED) by Sai Life Sciences Lt. (Telangana, India). The RED device contains a dialysis membrane with a molecular weight cut -off […]
(§3) of 8,000 Da, separating two chambers for plasma and buffer, respectively. […]
(§4) were added to the plasma chamber, versus phosphate buffer saline (pH 7.4) to the buffer chamber. Dialysis was performed for 4 h with 100 RPM shaking at 37 °C. […]
(§5) compounds in plasma were either frozen immediately (T0 sample), or incubated at 37 °C for 4 h without dialysis (non-dialysed), respectively.
(§6) Following dialysis, an aliquot was removed from either chamber and diluted with equal volume of opposite matrix to nullify the matrix effect. Similarly, buffer was added to recovery and stability samples. Next, acetonitrile (containing internal standard, glipizide) was added to the mixtures for protein precipitation and vortexed for 5 minutes. The samples were centrifuged at 4000 RPM at 4 °C for 10 min and the supernatant was submitted for liquid chromatography mass spectrometry (LC-MS/MS) analysis. Samples were monitored for parent compound using multiple reaction monitoring (MRM) mode.
(§7) The peak area ratios (PAR, analyte versus internal standard) in plasma vs bufffer were used to determine the fraction of compound bound to plasma proteins. The following equation was used to determine the extent of plasma protein binding: percent free drug = 100% x (PARbuffer / PARplasma); percent bound drug = 100 - % free drug. Recovery was calculated as 100% x (PARplasma + PARbuffer)dialysed / (PARplasma)non-dialysed; stability as 100% x (PAR)non-dialysed / (PARplasma)frozen at T0. […]

in vitro [2] = conditions: human
Experimental: as §1, §2, §3, §4, §5, §6, §7

in vitro [3] = conditions: rat
Experimental: as §1, §2, §3, §4, §5, §6, §7

Row | SMILES | IC50 (ALK5) [nM] | recovery at 4 h, 5 µM (in vitro [1]; pH 7.4) [%] | % Compound remaining at 4 hrs (in vitro [1]; plasma, 4 h, 5 µM) [%] | recovery at 4 h, 5 µM (in vitro [2]; pH 7.4) [%] | % Compound remaining at 4 hrs (in vitro [2]; plasma, 4 h, 5 µM) [%] | recovery at 4 h, 5 µM (in vitro [3]; pH 7.4) [%] | % Compound remaining at 4 hrs (in vitro [3]; plasma, 4 h, 5 µM) [%]
1 | Cc1cccc(-c2nn3c(c2-c2ccnc4ccc(Br)cc24)CCC3)n1 [6-Br, 6-Bromo-4-(2-(6-methylpyridin-2-yl)-5,6-dihydro-4H-pyrrolo[1,2-b]pyrazol-3-yl) Quinoline] | 89 | – | – | – | – | – | –
2 | CC(=O)CC(c1ccccc1)c1c(O)c2ccccc2oc1=O (stereo not shown) [Warfarin, reference compound] | – | 99.9 | 106.2 | 100 | 84.2 | 98.6 | 104.8
